# In ChEMBL document CHEMBL1130769, “Use of the 1,2,5-thiadiazolidin-3-one 1,1 dioxide and isothiazolidin-3-one 1,1 dioxide scaffolds in the design of potent inhibitors of serine proteinases” (Bioorg Med Chem Lett, 1998):
# Tests used:
# [1] = target: T1, Neutrophil elastase (Homo sapiens) (UniProt P08246); experiment: Compound was evaluated for inhibitory activity against human leukocyte elastase
# T1 sequence (whole entry): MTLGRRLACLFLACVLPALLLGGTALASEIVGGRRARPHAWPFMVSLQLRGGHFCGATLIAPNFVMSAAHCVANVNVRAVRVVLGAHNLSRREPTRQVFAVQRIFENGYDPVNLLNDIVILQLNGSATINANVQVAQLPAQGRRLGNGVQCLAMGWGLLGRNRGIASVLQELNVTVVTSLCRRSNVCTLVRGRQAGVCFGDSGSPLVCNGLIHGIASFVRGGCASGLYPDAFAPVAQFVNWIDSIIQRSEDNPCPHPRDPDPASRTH
# [2] = target: T2, Myeloblastin (Homo sapiens) (UniProt P24158); experiment: Compound was evaluated for inhibitory activity against Proteinase 3
# T2 sequence (whole entry): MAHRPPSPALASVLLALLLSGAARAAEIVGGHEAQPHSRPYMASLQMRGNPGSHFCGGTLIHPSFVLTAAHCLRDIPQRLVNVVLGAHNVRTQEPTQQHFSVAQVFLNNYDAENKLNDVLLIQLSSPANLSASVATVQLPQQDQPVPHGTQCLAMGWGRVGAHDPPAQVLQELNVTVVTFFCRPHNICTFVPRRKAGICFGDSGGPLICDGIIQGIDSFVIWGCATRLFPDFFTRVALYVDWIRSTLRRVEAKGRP
# [3] = target: T3, Cathepsin G (Homo sapiens) (UniProt P08311); experiment: Compound was evaluated for inhibitory activity towards Cathepsin G
# T3 sequence (whole entry): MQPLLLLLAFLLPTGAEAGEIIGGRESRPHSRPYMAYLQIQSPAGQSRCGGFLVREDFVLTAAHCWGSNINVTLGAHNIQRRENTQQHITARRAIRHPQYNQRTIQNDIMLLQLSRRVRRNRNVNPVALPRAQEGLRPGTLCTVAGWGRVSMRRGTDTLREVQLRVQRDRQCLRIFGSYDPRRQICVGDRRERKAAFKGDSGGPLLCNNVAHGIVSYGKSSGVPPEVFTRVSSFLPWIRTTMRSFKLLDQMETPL
SMILES,K inact/Ki [1],K inact/Ki [2],K inact/Ki [3]
CC(C)CC1C(=O)N(COP(=O)(OCc2ccccc2)OCc2ccccc2)S(=O)(=O)N1Cc1ccccc1 (centres undefined),6e+06 M⁻¹ s⁻¹,89100 M⁻¹ s⁻¹,120 M⁻¹ s⁻¹
CCCCOP(=O)(OCCCC)OCN1C(=O)C(CC(C)C)N(CC2C=CC=C2)S1(=O)=O (centres undefined),2.5e+06 M⁻¹ s⁻¹,–,–
COP(=O)(OC)OCN1C(=O)C(CC(C)C)N(CC2C=CC=C2)S1(=O)=O (centres undefined),430000 M⁻¹ s⁻¹,–,–
CC(C)CC1C(=O)N(COP(=O)(Oc2ccccc2)Oc2ccccc2)S(=O)(=O)N1CC1C=CC=C1 (centres undefined),4.2e+06 M⁻¹ s⁻¹,–,–

# Other lines, results leading:
K inact/Ki [1],K inact/Ki [2],K inact/Ki [3],SMILES
95000 M⁻¹ s⁻¹,–,–,CC(C)CC1CS(=O)(=O)N(COP(=O)(OCc2ccccc2)OCc2ccccc2)C1=O (centres undefined)
2.7e+06 M⁻¹ s⁻¹,–,–,CCCCOP(=O)(OCCCC)OCN1C(=O)C(CC(C)C)N(C)S1(=O)=O (centres undefined)
82000 M⁻¹ s⁻¹,–,–,CCCCOP(=O)(OCCCC)OCN1C(=O)C(CC(C)C)CS1(=O)=O (centres undefined)
